Data: patent US20230338609A1, “MEDICAL DEVICES AND MATERIALS COMPRISING BIODEGRADABLE POLYESTERS” (AMICOAT AS, priority 2020, published 2023)
Values after ≈ are worked out from the molar mass of the structure shown.

Key:
S. pyogenes = conditions: Table 5
[1] = test system: Methicillin resistant Staphylococcus aureus (MRSA) strain ATCC 33591; conditions: ATCC 33591
[2] = test system: Streptococcus pyogenes CS301; experiment: Murine skin infection model, topical treatment; type: in vivo; conditions: mice
Procedure: (§1) The skin of mice was infected with Staphylococcus aureus or Streptococcus pyogenes and subsequently given a total of three treatments at three hourly intervals. Three hours after the last treatment, skin biopsies were collected and the number of colony forming units (CFUs) present in the skin sample was determined. Results are shown in FIGS. 1 and 2, expressed as the number of colony forming units per mouse.
as §1, with “3, 4” for “1”, “5” for “2,”

[3] = test system: Staphylococcus aureus FDA486; experiment: Murine skin infection model, topical treatment; type: in vivo; conditions: mice; cream or gel containing 2% (w/w); three treatments at three hourly intervals; biopsy three hours after last
Procedure: as §1
as §1, with “3, 4” for “1”, “5” for “2,”

[4] = test system: Staphylococcus aureus - methicillin-resistant clinical isolate; type: cell-based
Source text: (§2) Cation-adjusted Mueller-Hinton broth (Oxoid Ltd., Basingstoke, UK and Trek Diagnostic Systems Ltd., East Grinstead, UK) (supplemented with 5% laked horse blood for Streptococcus spp., Corynebacterium jeikeium and Listeria monocytogenes) was used for aerobic bacteria, with an initial inoculum of approximately 10^5 colony-forming units (CFU)/mL.

[5] = test system: Staphylococcus aureus ATCC 29213 - antibiotic-susceptible control strain; type: cell-based
Source text: as §2

[6] = test system: Staphylococcus saprophyticus - antibiotic susceptible clinical isolate; type: cell-based
Source text: as §2

[7] = test system: Moraxella catarrhalis - reduced fluoroquinolone susceptibility clinical isolate; type: cell-based
Source text: as §2

[8] = test system: Streptococcus bovis - macrolide-resistant clinical isolate; type: cell-based
Source text: as §2

[9] = test system: EMRSA15 Staphylococcus aureus (MRSA) - SSCmec type 4; type: cell-based; conditions: EMRSA15 - SSCmec type 4
Source text: as §2

[10] = test system: Corynebacterium jeikeium - multi-drug resistant clinical isolate; type: cell-based
Source text: as §2

[11] = test system: Staphylococcus aureus ATCC 43300 - methicillin-resistant control strain; type: cell-based
Source text: as §2

[12] = test system: HT2001254 Staphylococcus aureus (MRSA) - PVL positive; type: cell-based
Source text: as §2

[13] = test system: Enterococcus gallinarum vancomycin-resistant (VanC) clinical isolate; type: cell-based
Source text: as §2

[14] = test system: Pseudomonas aeruginosa - multi-drug resistant clinical isolate; type: cell-based
Source text: as §2

[15] = test system: Streptococcus agalactiae - antibiotic-susceptible clinical isolate; type: cell-based
Source text: as §2

[16] = test system: EMRSA3 Staphylococcus aureus (MRSA) - SSCmec type 1; type: cell-based; conditions: EMRSA3 - SSCmec type 1
Source text: as §2

[17] = test system: Moraxella catarrhalis - β -lactamase positive clinical isolate; type: cell-based
Source text: as §2

[18] = test system: Staphylococcus epidermidis antibiotic susceptible clinical isolate; type: cell-based
Source text: as §2

[19] = test system: Staphylococcus haemolyticus - antibiotic susceptible clinical isolate; type: cell-based
Source text: as §2

[20] = test system: Staphylococcus aureus ATCC 25923 - antibiotic-susceptible control strain; type: cell-based
Source text: as §2

[21] = test system: Corynebacterium jeikeium - antibiotic-susceptible clinical isolate; type: cell-based
Source text: as §2

[22] = test system: Staphylococcus epidermidis methicillin-resistant clinical isolate; type: cell-based
Source text: as §2

[23] = test system: Methicillin resistant Staphylococcus epidermidis (MRSE) strain ATCC 27626; conditions: ATCC 27626
C. albicans = conditions: Table 5
[24] = test system: Staphylococcus aureus, strain ATCC 25923; conditions: ATCC 25923
P. aeruginosa = conditions: Table 5
E. coli = conditions: Table 5
[25] = test system: Candida (Issatchenkia) krusei ATCC6258 - reference strain; type: cell-based
Procedure: (§3) Yeast and filamentous fungal MIC were performed in MOPS buffered RPMI 1640 medium (MOPS buffer obtained from Sigma Aldrich Ltd., RPMI 1640 obtained from Invitrogen Ltd, Paisley, Scotland). The yeast inocula were in the range 7.5×10^2-4×10^3 CFU/mL and the filamentous fungi approximately 8×10^3-1×10^5 CFU/mL

[26] = test system: Trichophyton mentagrophytes - G.R. Micro collection; type: cell-based
Procedure: as §3

[27] = test system: Cryptococcus neoformans - G.R. Micro collection; type: cell-based
Procedure: as §3

[28] = test system: Candida tropicalis ATCC750 - reference strain; type: cell-based
Procedure: as §3

CC(C)NC(=O)[C@H](CCCNC(=N)N)NC(=O)[C@H](Cc1c(C(C)(C)C)[nH]c2c(C(C)(C)C)cc(C(C)(C)C)cc12)NC(=O)[C@@H](N)CCCNC(=N)N [Compound 7]
S. pyogenes (MIC) (S. pyogenes): <2 µg/mL | MRSA (MIC) [1]: <2 µg/mL | number of CFUs in skin biopsy vs placebo gel and bactroban ([2]; 1% or 2% gel, three treatments at three hourly intervals): more effective at reducing the number of CFUs from a Streptococcus pyogenes CS 301 infection than the placebo gel or the bactroban | number of CFUs in skin biopsy, 2% gel compared with 1% gel ([2]; 2% gel vs 1% gel): more effective than the gel containing only 1% of compound 7 | number of CFUs in skin biopsy vs placebo [3]: the number of CFUs was reduced | MIC [4]: 8 µg/mL (≈ 11 µM) | MIC [5]: 8 µg/mL (≈ 11 µM) | MIC [6]: 2 µg/mL (≈ 2.75 µM) | MIC [7]: 8 µg/mL (≈ 11 µM) | MIC [8]: 8 µg/mL (≈ 11 µM) | MIC [9]: 8 µg/mL (≈ 11 µM) | MIC [10]: 8 µg/mL (≈ 11 µM) | MIC [11]: 8 µg/mL (≈ 11 µM) | MIC [12]: 8 µg/mL (≈ 11 µM) | MIC [13]: 8 µg/mL (≈ 11 µM) | MIC [14]: 8 µg/mL (≈ 11 µM) | MIC [15]: 8 µg/mL (≈ 11 µM) | MIC [16]: 8 µg/mL (≈ 11 µM) | MIC [17]: 4 µg/mL (≈ 5.51 µM) | MIC [18]: 4 µg/mL (≈ 5.51 µM) | MIC [19]: 4 µg/mL (≈ 5.51 µM) | MIC [20]: 8 µg/mL (≈ 11 µM) | MIC [21]: 8 µg/mL (≈ 11 µM) | MIC [22]: 4 µg/mL (≈ 5.51 µM) | MRSE (MIC) [23]: <2 µg/mL | C. albicans (MIC) (C. albicans): 25 µg/mL | S. aureus (MIC) [24]: <2 µg/mL | P. aeruginosa (MIC) (P. aeruginosa): 7 µg/mL | E. coli (MIC) (E. coli): 7 µg/mL | MIC [25]: 8 µg/mL (≈ 11 µM) | MIC [26]: 8 µg/mL (≈ 11 µM) | MIC [27]: 8 µg/mL (≈ 11 µM) | MIC [28]: 4 µg/mL (≈ 5.51 µM)
